Measurements: patent publication US9138466B2, “Factor H for transplantation” (Baxter International Inc., priority 2013, dated 2015)
Several values for one entry are separate records, joined by “and”; a condition that tells them apart may be missing. Equal values may be shown once. Marks after values point to notes of the source that are not given here.

Assays:
Type in all cases: in vivo
[1] = system: C3H kidney allografts in pre-sensitized B6 recipients; test: Pre-sensitized mouse kidney allograft model, RAPA / CFH / FK506, graft survival (Example 2)
Source text: Male C3H (H-2k) and C57BL/6 (B6, H-2b) mice (25-30 g) were used to determine the efficacy of Rapamycin (RAPA) in combination with Factor H (FH) during transplant rejection. C3H mice served as skin graft and kidney donors for pre-sensitization and kidney transplantation. Male C57BL/c (B6) mice were used as recipients. The B6 recipients were pre-sensitized by transplantation of the donor skin grafts, and were subsequently transplanted with kidney allografts between 15 and 20 days after the skin transplantation. […]
Mice were monitored daily for signs of rejection and were euthanized at the end point of the experiment, which was defined as when transplants developed functional deterioration due to severe rejection or on POD60 and POD100. Renal graft function was monitored by plasma creatinine (Cr) blood urea nitrogen (BUN) and hematocrit (Hct) levels by an I-Stat potable analyzer (Abaxis). Circulating donor specific antibodies (DSAs) were determined prior to kidney transplantation and at the endpoint of study by flow cytometry.

[2] = system: collagen antibody-induced arthritis in Balb C mice; test: Mouse CAIA, clinical score (Example 4); design: key to Mean Maximum Clinical Score: scored 0 to 60, sum of 4 limbs
[3] = Mouse CAIA, body weight and tolerability (Example 4)
Method: Balb C mice (n=10 per cohort) were used to determine the efficacy of Factor H (FH) during transplant rejection. The mice were treated with ArthritoMAb (anti-collagen) antibody cocktail (2 mg, i.v.) on day 1, followed 7 days later with an injection of LPS (50 μg, i.p.). On day 8, hind paw volumes were measured for each animal and distributed to various treatment groups.
Hind paw volumes were measured on day 8, 11, 12, 13, 15, 19 and 22 (endpoint). The age at start date was 7 to 9 weeks. Body weights were measured bi-weekly to the endpoint (Table 4). At the endpoint, tissue samples were processed for histology and submitted to a pathologist for independent analysis. Sampling 1 was performed at the endpoint. The hind limbs were preserved in 10% formalin. Sampling 2 was performed at the endpoint for group 4 animals. Blood was collected by terminal cardiac puncture. The blood was processed for anti-coagulant. The kidneys were additionally preserved in formalin and followed with 70% EtOH. Samples were scored for inflammation, pannus (granulation tissue), cartilage damage, bone resorption and exostosis (Table 5).

[4] = system: collagen antibody-induced arthritis in Balb C mice; test: Mouse CAIA, histopathology of hind limbs (ankle, H & E) (Example 4); conditions: for Composite Histopathaligy Score / Score From H & E, Bone Resorption / Score From H & E, Cartilage Damage / Score From H & E, Inflammation / Score From H & E, Pannus / Score From H & E, Periosteal Exostotic Changes: ankle; for Score From H & E, Bone Resorption / Score From H & E, Cartilage Damage / Score From H & E, Inflammation / Score From H & E, Pannus / Score From H & E, Periosteal Exostotic Changes: score 0 = normal to 5 = severe
[5] = system: collagen antibody-induced arthritis in Balb C mice; test: Mouse CAIA, hind paw volume / footpad swelling (Example 4); design: Mean Disease Burden / Hind Limb Volume, Mean Diff. / Total Disease, Mean Diff.: unit not given here; conditions: for Total Footpad Thickness, Day of Study 8: day 8; for Total Footpad Thickness, Day of Study 11: day 11; for Total Footpad Thickness, Day of Study 12: day 12; for Total Footpad Thickness, Day of Study 13: day 13; for Total Footpad Thickness, Day of Study 15: day 15; for Total Footpad Thickness, Day of Study 19: day 19; for Total Footpad Thickness, Day of Study 22: day 22; for % Disease Suppression: footpad thickness AUC vs vehicle; for Total Disease Burden (AUC): footpad thickness days 8-22, in mL·day
[6] = Dunn's Multiple Comparison Test, G1 vehicle vs treatment
[7] = individual animal, listed as Group 3
[8] = Dunnett's Multiple Comparison Test, G1 vehicle vs treatment
[9] = Dunnett's Multiple Comparison Test, vehicle vs treatment

## CO[C@H]1C[C@@H]2CC[C@@H](C)[C@@](O)(O2)C(=O)C(=O)N2CCCC[C@H]2C(=O)O[C@H]([C@H](C)C[C@@H]2CC[C@@H](O)[C@H](OC)C2)CC(=O)[C@H](C)/C=C(\C)[C@@H](O)[C@@H](OC)C(=O)[C@H](C)C[C@H](C)/C=C/C=C/C=C/1C [RAPA Alone, Rapamycin]
[1]; individual grafts, pre-sensitized kidney transplant model
  Survival: 8 days (2×) and 37 days and 10 days and 11 days and 12 days and 22 days and 14 days and 16 days and 20 days
[1]; per cohort, untreated controls 8 days
  MST (mean survival time): 14 days

## Etanercept
[2]; [6]
  Clinical Score, Difference in rank sum: 3.55
  Clinical Score, Significant? P < 0.05?: No
[2]; day 8, group mean n=10
  Clinical score, Mean: 5.50
[2]; day 8, individual animal
  Clinical score: 0 (5×) and 15 and 10 (4×)
[2]; day 11, group mean n=10
  Clinical score, Mean: 19.60
[2]; day 11, individual animal
  Clinical score: 12 (2×) and 34 and 28 and 4 and 15 and 43 and 11 and 10 and 27
[2]; day 12, group mean n=10
  Clinical score, Mean: 37.10
[2]; day 12, individual animal
  Clinical score: 32 and 50 (2×) and 45 and 27 and 35 and 26 and 20 and 34 and 52
[2]; day 13, group mean n=10
  Clinical score, Mean: 35.50
[2]; day 13, individual animal
  Clinical score: 32 and 50 and 45 (2×) and 21 and 35 and 30 and 15 and 34 and 48
[2]; day 15, group mean n=10
  Clinical score, Mean: 31.50
[2]; day 15, individual animal
  Clinical score: 32 and 49 and 21 and 48 and 25 and 45 and 15 and 10 and 24 and 46
[2]; day 19, group mean n=10
  Clinical score, Mean: 28.40
[2]; day 19, individual animal
  Clinical score: 32 and 48 and 34 and 25 and 5 and 45 and 20 and 10 and 26 and 37
[2]; day 22, group mean n=10
  Clinical score, Mean: 25.70
[2]; day 22, individual animal
  Clinical score: 32 and 41 and 34 and 18 (3×) and 40 and 10 and 23 and 26
[2]; group line 'Mean', day of study
  Day (of Max Clin Score), Mean: 12.00
[2]; group mean n=10
  Max Clin Score, Mean: 38.60
[2]; individual animal
  Max Clin Score: 32 and 50 (2×) and 45 and 48 and 35 and 30 and 20 and 34 and 52
[2]; individual animal, day of study
  Day (of Max Clin Score): 12 (8×) and 22 and 16
[2]; scored from 0 to 60, sum of 4 limbs, vehicle 45.4
  Mean Maximum Clinical Score: 39.6^ns
[3]; day 1, group mean n=10, before dosing start (day 8)
  Body Weight, Wt (g), Mean: 17.3 g
[3]; day 1, individual animal, before dosing start (day 8)
  Body Weight, Wt: 16.7 g and 17.3 g and 16.5 g (2×) and 18 g (2×) and 17.7 g and 17.5 g and 16.8 g and 17.6 g
[3]; day 5, group mean n=10, before dosing start (day 8)
  Body Weight, Wt (g), Mean: 17.7 g
[3]; day 5, individual animal, before dosing start (day 8)
  Body Weight, Wt: 18.5 g (2×) and 17.4 g (2×) and 18.2 g and 16.6 g and 17.3 g and 17 g and 18.1 g and 18.3 g
[3]; day 8, group mean n=10
  Body Weight, Wt (g), Mean: 16.3 g
[3]; day 8, individual animal
  Body Weight, Wt: 16.5 g and 16.4 g (2×) and 16.1 g (2×) and 15.7 g (2×) and 16.2 g and 16.6 g and 17.1 g
[3]; day 12, group mean n=10
  Body Weight, Wt (g), Mean: 17 g
[3]; day 12, individual animal
  Body Weight, Wt: 16.6 g and 16.7 g (2×) and 17.8 g (2×) and 17.9 g and 15.5 g and 17.1 g and 17.7 g
[3]; day 15, group mean n=10
  Body Weight, Wt (g), Mean: 17.4 g
[3]; day 15, individual animal
  Body Weight, Wt: 17.1 g and 17.8 g and 17 g and 17.7 g and 16.6 g and 18 g (2×) and 17.9 g and 16.2 g and 17.6 g
[3]; day 19, group mean n=10
  Body Weight, Wt (g), Mean: 17.9 g
[3]; day 19, individual animal
  Body Weight, Wt: 18.3 g (2×) and 17.7 g and 18.4 g and 14.6 g and 18.8 g and 18.6 g (2×) and 16.5 g and 19.1 g
[3]; day 22, group mean n=10
  Body Weight, Wt (g), Mean: 18.1 g
[3]; day 22, individual animal
  Body Weight, Wt: 18.8 g and 18.3 g and 17.8 g and 18.7 g and 15.8 g and 18 g and 18.2 g and 17.3 g and 18.6 g and 19.6 g
[3]; lowest group mean body weight as % change from day 1, vehicle −8.0%
  Mean Body Weigh at Nadir: −5.7%
[4]; [6]
  Cartilage, Difference in rank sum: −1.5
  Cartilage, Significant? P < 0.05?: No
  Composite, Difference in rank sum: 2.1
  Composite, Significant? P < 0.05?: No
  Exostosis, Difference in rank sum: 5.8
  Exostosis, Significant? P < 0.05?: No
  Inflammation, Difference in rank sum: 3.6
  Inflammation, Significant? P < 0.05?: No
  Pannus, Difference in rank sum: 0.3
  Pannus, Significant? P < 0.05?: No
[4]; group mean
  Composite Histopathaligy Score: 6.0 ± 2.1
  Score From H & E, Bone Resorption: 1.0 ± 0.4
  Score From H & E, Cartilage Damage: 0.7 ± 0.3
  Score From H & E, Inflammation: 1.5 ± 0.5
  Score From H & E, Pannus: 1.4 ± 0.5
  Score From H & E, Periosteal Exostotic Changes: 1.4 ± 0.8
[4]; [7]
  Score From H & E, Bone Resorption: 1 and 0 (6×) and 3 (3×)
  Score From H & E, Cartilage Damage: 1 (3×) and 0 (5×) and 2 (2×)
  Score From H & E, Inflammation: 1 (4×) and 3 (3×) and 0 (2×) and 2
  Score From H & E, Pannus: 1 and 0 (5×) and 4 (2×) and 2 (2×)
  Score From H & E, Periosteal Exostotic Changes: 4 and 0 (6×) and 1 and 3 (2×)
  Composite Histopathaligy Score: 11 (2×) and 0 (5×) and 16 and 15 and 1
[4]; histopathology summary, graded 1-5, vehicle 0.6 ± 0.3
  Bone Resorption: 1.0 ± 0.4^ns
[4]; histopathology summary, graded 1-5, vehicle 1.0 ± 0.3
  Pannus: 1.4 ± 0.5^ns
[4]; histopathology summary, graded 1-5, vehicle 2.0 ± 0.5
  Inflammation: 1.5 ± 0.5^ns
[4]; histopathology summary, graded 1 to 5, vehicle 2.6 ± 0.5
  Exostosis: 1.4 ± 0.6^ns
[4]; histopathology summary, vehicle 0.5 ± 0.2
  Cartilage Damage: 0.7 ± 0.3^ns
[4]; histopathology summary, vehicle 6.7 ± 1.7
  Composite Score: 6.0 ± 2.1^ns
[5]; AUC of combined footpad volume over baseline, days 8 to 22, group mean, vehicle 1.93
  Mean Disease Burden: 0.74**
[5]; [8]
  Total Disease, 95% CI of diff: 0.441 to 1.94
  Total Disease, Mean Diff.: 1.19
  Total Disease, Significant? P < 0.05?: Yes
  Total Disease, Summary: ** (**= P < 0.01)
  Total Disease, q: 3.9
[5]; [9]
  Hind Limb Volume, 95% CI of diff: 0.02587 to 0.1370
  Hind Limb Volume, Mean Diff.: 0.08143
  Hind Limb Volume, Significant? P < 0.05?: Yes
  Hind Limb Volume, Summary: ** (**= P < 0.01)
  Hind Limb Volume, q: 3.674
[5]; group mean, n 10
  Total Footpad Thickness, Day of Study 8: 0.35 mL
  Total Footpad Thickness, Day of Study 11: 0.44 mL
  Total Footpad Thickness, Day of Study 12: 0.44 mL
  Total Footpad Thickness, Day of Study 13: 0.42 mL
  Total Footpad Thickness, Day of Study 15: 0.38 mL
  Total Footpad Thickness, Day of Study 19: 0.42 mL
  Total Footpad Thickness, Day of Study 22: 0.38 mL
  % Disease Suppression: 61.66%
  Total Disease Burden (AUC): 0.74
[5]; individual animals (A# 1-10)
  Total Footpad Thickness, Day of Study 8: 0.41 mL and 0.4 mL and 0.38 mL and 0.37 mL and 0.35 mL and 0.34 mL and 0.32 mL and 0.31 mL and 0.3 mL (2×)
  Total Footpad Thickness, Day of Study 11: 0.49 mL and 0.44 mL (2×) and 0.37 mL and 0.38 mL and 0.39 mL and 0.4 mL (2×) and 0.45 mL and 0.41 mL
  Total Footpad Thickness, Day of Study 12: 0.58 mL and 0.44 mL and 0.35 mL and 0.42 mL and 0.48 mL and 0.49 mL and 0.45 mL and 0.39 mL (2×) and 0.4 mL
  Total Footpad Thickness, Day of Study 13: 0.58 mL and 0.41 mL (2×) and 0.36 mL and 0.33 mL and 0.49 mL and 0.39 mL and 0.35 mL and 0.43 mL and 0.4 mL
  Total Footpad Thickness, Day of Study 15: 0.45 mL and 0.48 mL and 0.34 mL and 0.37 mL and 0.43 mL and 0.41 mL and 0.33 mL (2×) and 0.32 mL and 0.3 mL
  Total Footpad Thickness, Day of Study 19: 0.61 mL and 0.43 mL and 0.4 mL and 0.47 mL (2×) and 0.32 mL and 0.42 mL and 0.35 mL and 0.33 mL and 0.38 mL
  Total Footpad Thickness, Day of Study 22: 0.55 mL and 0.41 mL (2×) and 0.34 mL (2×) and 0.39 mL and 0.36 mL (3×) and 0.32 mL
  % Disease Suppression: 16.3% and 74.3% and 109.8% and 83.9% and 52.3% and 49.7% and 69.4% and 70.2% and 29.0% and 63.7%
  Total Disease Burden (AUC): 1.62 and 0.56 and −0.19 and 0.35 and 0.92 and 0.97 and 0.59 and 0.58 and 1.37 and 0.70
[5]; mean combined foot pad volume, day 8 vs median day of maximal swelling, vehicle 0.21
  Maximum Δ Mean Volume: 0.13** ml
[5]; percent decrease in total disease burden relative to vehicle
  % Disease Suppression (vs Vehicle): 61.7%
